Results taken from patent US8012949B2, “Bisphosphonate compounds and methods with enhanced potency for multiple targets including FPPS, GGPPS, and DPPS” (The Board of Trustees of the University of Illinois, priority 2004, dated 2011).
Like-named read-outs stand apart in the source and are kept apart here.

Tests used:
human DPPS = molecular target: T1, human DPPS (Homo sapiens, UniProt Q5T2R2); assay: human DPPS enzyme inhibition; type: biochemical
T1 construct: made in house
T1 sequence (Q5T2R2 1-415): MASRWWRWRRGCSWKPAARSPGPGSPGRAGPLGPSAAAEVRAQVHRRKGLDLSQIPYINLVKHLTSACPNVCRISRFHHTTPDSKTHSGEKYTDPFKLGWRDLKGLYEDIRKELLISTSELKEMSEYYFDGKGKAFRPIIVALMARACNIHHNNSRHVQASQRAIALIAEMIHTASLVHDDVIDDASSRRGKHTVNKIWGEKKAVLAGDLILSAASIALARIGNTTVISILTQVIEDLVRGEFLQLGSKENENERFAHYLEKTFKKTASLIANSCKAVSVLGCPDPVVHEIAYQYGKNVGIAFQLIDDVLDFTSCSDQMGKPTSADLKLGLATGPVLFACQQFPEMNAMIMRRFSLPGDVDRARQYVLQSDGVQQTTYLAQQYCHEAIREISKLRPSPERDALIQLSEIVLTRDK
T1 sequence (Q86YH6 1-399 partner): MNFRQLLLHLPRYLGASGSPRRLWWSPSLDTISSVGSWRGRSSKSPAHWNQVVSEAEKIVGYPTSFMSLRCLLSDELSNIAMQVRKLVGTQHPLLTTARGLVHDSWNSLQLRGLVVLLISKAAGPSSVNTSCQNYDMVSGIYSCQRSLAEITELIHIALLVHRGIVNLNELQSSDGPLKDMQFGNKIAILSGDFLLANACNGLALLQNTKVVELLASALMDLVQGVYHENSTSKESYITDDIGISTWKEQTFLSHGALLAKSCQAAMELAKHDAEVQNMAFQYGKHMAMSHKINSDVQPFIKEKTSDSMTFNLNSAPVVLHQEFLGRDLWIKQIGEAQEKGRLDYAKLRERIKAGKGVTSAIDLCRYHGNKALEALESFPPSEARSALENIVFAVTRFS
From the text: To test our polypharmaceutical hypothesis, we expressed three enzymes: human FPPS, GGPPS and DPPS, and tested each for their inhibition by a series of bisphosphonates.

[1] = system: SF-268 (central nervous system glioblastoma); assay: SF-268 cell growth inhibition (MTT); type: cell-based, human; conditions: Homo sapiens, SF-268

effect on DPPS (human DPPS): essentially no effect
Ki (human DPPS; Table 1, experimental, read-out: DPPS_pKi (converted)): 200 nM
IC50 ([1]; Table 1, experimental, read-out: SF-268 pIC50 (converted)): 25100 nM
IC50 ([1]; read-out: IC50, inhibition of human CNS cancer SF268): 524 nM
Structure (SMILES): CCCCCCCCCCOc1cccc(CC(O)(P(=O)(O)O)P(=O)(O)O)c1 [BPH-754]
